Key:
HDAC Class 1l = experiment: HDAC Class II inhibition; format: biochemical; conditions: stated as no activity; read-out: activity against HDAC Class 1l
[1] = Phase Ib/II clinical trial CTL-101-023, CXD101 with nivolumab, safety; format: in vivo, human; conditions: study CTL-101-023
Description: A clinical trial was conducted involving 55 subjects. The clinical trial protocol is summarized below: • Protocol Number: CTL-101-023 • Investigational Product: CXD101 and nivolumab Active Ingredient(s)/INN: • CXD101 or N-(2-aminophenyl)-4-(1-[(1,3-dimethyl-1H-pyrazol-4yl) methyl]piperidin-4-yl)benzamide is a Class I-selective histone deacetylase (HDAC) inhibitor. • Nivolumab is a programmed death receptor-1 (PD-1)-blocking antibody. […] 2. […] Subjects may continue to receive CXD101/nivolumab until complete response, disease progression, unacceptable toxicity, withdrawal of consent, or other medical problems supervene. • Efficacy will be measured using Immune Response Evaluation Criteria in Solid Tumours (iRECIST) Imaging studies, typically CT scan of chest, abdomen & pelvis, supplemented by MRI of liver when required, will be performed at Baseline and after every 6 weeks, with objective confirmation of response 6 weeks (+/−1 week) after observation. • Safety parameters will be assessed as in the Phase I study. […]

SW620 cells = experiment: qPCR of single genes, SW620 cells; format: cell-based, human
Description: (§1) Total RNA purified from DMSO- or CXD101 treated cells was transcribed into cDNA according to the manufacturer's instructions (iScript cDNA Synthesis Kit, Bio-Rad, USA). qPCR was conducted according to the manufacturer's protocol (SsoAdvanced Universal SYBR Green Supermix, Bio-Rad Laboratories, USA) on CFX Connect Real-Time System thermocycler (Bio-Rad Laboratories, USA).

colon26 cells = experiment: qPCR of single genes, colon26 cells; format: cell-based, mouse
Description: as §1

colon26 tumours = experiment: Immunohistochemistry of colon26 tumour sections; format: in vivo, Balb/c mice
Description: Tumours were harvested, embedded in paraffin blocks and cut into 5 μm sections. Antigen retrieval was achieved by incubating in sodium citrate. Sections were incubated with primary antibodies: anti-H3Ack9 (ab10812, abcam), anti-CD8 (ab203035, abcam), anti-CD4 (ab183685, abcam), anti-CD68 (GR300628, abcam), anti-CD163 (GR3232711, abcam and, anti-FoxP3 (14208S, New England Biolabs) and further stained with anti-rabbit secondary antibody (VECTASTAIN Elite ABC HRP Kit, Vector Laboratories Inc, USA) according to the manufacturer protocol. Signal was detected by DAB (3, 3-diaminobenzidine, Vector Laboratories Inc, USA) and sections were counterstained with haematoxylin (Hematoxylin solution Mayer's; pH 2.4, Merck Group, Germany). Pictures were taken using Leica DM2500 optical microscope (Leica Microsystems, Germany) and the signal was semi-quantified by means of ImageJ Fiji software (National Institutes of Health, USA, doi:10.1038/nmeth.2019).

A20 tumours = experiment: Syngeneic A20 B cell lymphoma model; format: in vivo, mouse; conditions: CXD101 50 mg/kg
Excerpt: In order to rule out that the effects of the combined therapy were specific to the colon26 and MC38 colorectal cancer model, we widened the study to the syngeneic A20 B cell lymphoma model (FIG. 10). A20 tumours are reported to express high levels of PD-L1 and are responsive to immunomodulatory antibodies (32).

[2] = cited from earlier work
[3] = relative to untreated control animals

With `Cc1nn(C)cc1CN1CCC(c2ccc(C(=O)Nc3ccccc3N)cc2)CC1` [CXD101, N-(2-aminophenyl)-4-(1-[(1,3-dimethyl-1H-pyrazol-4-yl)methyl]piperidin-4-yl)benzamide] the IC50 (HDAC Class 1l) was ≥ 2500 nM, the “neutropenia due to myelosuppression” value [1] was “varying degrees of neutropenia” and the “expression of HLA-B, HLA-F, HLA-DPA1, HLA-DQB1, CTLA4, CDKN1A, TIMP3” value (SW620 cells) was “increases expression”. For the same molecule, the “expression of PHGDH, BCL2L15” value (SW620 cells) was “decreases”, the “expression of REPIN1” value (SW620 cells) was “no effect” and the “expression of Ctla4, H2-D1, Tnfsrf8” value (colon26 cells) was “no effects”. The “expression of H2-DMb1, H2-Eb1, H2-Dma, Ereg, Timp3, Ccl9, Cc20, II33, Rab3b” value (colon26 cells) was “increased expression”, the “expression of H2-T3” value (colon26 cells) was “decreased” and the CD68 macrophages (colon26 tumours; compared to untreated animals) was “reduced”. For the same molecule, the CD163 macrophages (colon26 tumours; compared to untreated animals) was “reduced”, the “change in Tregs (FoxP3)” value (colon26 tumours; mouse, in vivo) was “quite modest” and the “level of CD4 lymphocytes in tumour” value (colon26 tumours; [3]) was “significant increase”. For the same molecule, the “level of CD8 lymphocytes in tumour” value (colon26 tumours; [3]) was “significant increase”, the “nuclear H3K9 acetylation” value (colon26 tumours; treated vs untreated animals) was “increased levels” and the A20 tumour progression (A20 tumours) was “modest effect”. For the same molecule, the “patients with tumour reduction” value ([2]; T-cell lymphoma, follicular lymphoma, Hodgkin lymphoma) was 63% and the MTD ([2]; for 5 days in a 3-weekly cycle) was 20 mg B.D.

From US12453725B2, “Treatment of inflammatory disease” (Celleron Therapeutics Limited, priority 2019, dated 2025)
